Reference: BindingDB's records for doi:10.1016/j.bmc.2021.116215 (Research Triangle Institute, 2021)

Molecular target: Cannabinoid receptor 1 (Homo sapiens, UniProt P21554)
Assay: Allosteric antagonist activity at human CB1 receptor expressed in CHO-RD-HGA16 cells overexpressing Galpha16 assessed as inhibition of CP55940-stimulated calcium mobilization preincubated for 15 mins followed by agonist addition and measured every 1 sec for 90 secs by Calcium-3 dye based FLIPR assay

Cannabinoid receptor 1, sequence (P21554 whole entry): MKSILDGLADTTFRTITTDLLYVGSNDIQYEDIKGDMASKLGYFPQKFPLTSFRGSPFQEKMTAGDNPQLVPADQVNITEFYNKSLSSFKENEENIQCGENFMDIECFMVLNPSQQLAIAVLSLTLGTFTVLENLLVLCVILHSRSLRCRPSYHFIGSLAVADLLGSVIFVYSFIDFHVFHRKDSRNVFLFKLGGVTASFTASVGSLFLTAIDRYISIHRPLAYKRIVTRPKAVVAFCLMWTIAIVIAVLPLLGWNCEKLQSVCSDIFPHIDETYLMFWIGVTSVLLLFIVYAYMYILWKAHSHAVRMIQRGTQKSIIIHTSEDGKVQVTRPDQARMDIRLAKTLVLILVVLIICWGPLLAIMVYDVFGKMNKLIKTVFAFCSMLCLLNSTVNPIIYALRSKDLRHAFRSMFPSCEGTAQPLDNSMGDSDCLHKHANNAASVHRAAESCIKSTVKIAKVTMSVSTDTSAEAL

IC50: 2510 nM
SMILES: O=C(NC[C@H]1C[C@@H]1c1ccccc1)Nc1ccc(Cl)cc1
